Converted amounts (≈) assume the structure as drawn.
Experiments:
E. coli MG1655 [1] = test: MIC, broth microdilution (CLSI); type: cell-based; settings: Escherichia coli
Procedure: (§1) II. Materials and Methods for Biological Experiments
(§2) S. aureus ATCC 29213 and E. coli MG1655 were obtained from the American Type Culture Collection (ATCC). E. coli BW25113 and E. coli JW5503 were obtained from the Keio Collection. AR-bank strains were obtained from the Centers for Disease Control and Prevention and FDA Antibiotic Resistance Isolate Bank.
(§3) Antimicrobial susceptibility tests
(§4) Susceptibility testing was performed in biological triplicate, unless noted otherwise, using the micro-dilution broth method as outlined by the Clinical and Laboratory Standards Institute. Bacteria were cultured with cation-adjusted Mueller Hinton broth (Sigma Aldrich, catalogue number: 90922). […]
(§5) NH3: m/z 391.2 → 171.0. Fabimycin: m/z 405.3 → 145.3. Power analysis was not used to determine the number of replicates. Error bars represent the standard error of the mean of three biological replicates. All compounds evaluated in biological assays were ≥95% pure.

S. aureus ATCC 29213 = test: MIC, broth microdilution (CLSI); type: cell-based; settings: Staphylococcus aureus, ATCC29213; S. aureus 29213
Procedure: as §1, §2, §3, §4, §5

E. coli ΔtolC (JW5503) = test: MIC, broth microdilution (CLSI); type: cell-based, Escherichia coli; settings: Escherichia coli
Procedure: as §1, §2, §3, §4, §5

A. baumannii AR-0033 = test: MIC, broth microdilution (CLSI); type: cell-based; settings: Acinetobacter baumannii, AR0033; A. baumannii AR-0033 clinical isolate; † = dose-independent trailing growth
Procedure: as §1, §2, §3, §4, §5

A. baumannii AR-0273 = test: MIC, broth microdilution (CLSI); type: cell-based; settings: Acinetobacter baumannii, AR0273; A. baumannii AR-0273 clinical isolate
Procedure: as §1, §2, §3, §4, §5

A. baumannii AR-0299 = test: MIC, broth microdilution (CLSI); type: cell-based; settings: Acinetobacter baumannii, AR0299; A. baumannii AR-0299 clinical isolate; † = dose-independent trailing growth
Procedure: as §1, §2, §3, §4, §5

E. coli AR-0048 = test: MIC, broth microdilution (CLSI); type: cell-based; settings: Escherichia coli, AR0048; E. coli AR-0048 clinical isolate
Procedure: as §1, §2, §3, §4, §5

E. coli AR-0085 = test: MIC, broth microdilution (CLSI); type: cell-based; settings: Escherichia coli, AR0085; E. coli AR-0085 clinical isolate
Procedure: as §1, §2, §3, §4, §5

K. pneumoniae AR-0066 = test: MIC, broth microdilution (CLSI); type: cell-based; settings: Klebsiella pneumoniae, AR0066; K. pneumoniae AR-0066 clinical isolate
Procedure: as §1, §2, §3, §4, §5

K. pneumoniae AR-0560 = test: MIC, broth microdilution (CLSI); type: cell-based; settings: Klebsiella pneumoniae, AR0560; K. pneumoniae AR-0560 clinical isolate
Procedure: as §1, §2, §3, §4, §5

K. pneumoniae BAA-2472 = test: MIC, broth microdilution (CLSI); type: cell-based; settings: Klebsiella pneumoniae, BAA2472
Procedure: as §1, §2, §3, §4, §5

A. baumannii AR-0313 = test: MIC, broth microdilution (CLSI); type: cell-based; settings: Acinetobacter baumannii, AR0313; A. baumannii AR-0313 clinical isolate; † = dose-independent trailing growth
Procedure: as §1, §2, §3, §4
(§6) Error bars represent the standard error of the mean of three biological replicates. All compounds evaluated in biological assays were ≥95% pure.

K. pneumoniae AR-0113 = test: MIC, broth microdilution (CLSI); type: cell-based; settings: Klebsiella pneumoniae, AR0113; K. pneumoniae AR-0113 clinical isolate
Procedure: as §1, §2, §3, §4, §6

E. coli MG1655 [2] = test: Serial passaging; type: cell-based, Escherichia coli; settings: E. coli MG1655, subinhibitory concentration, 21 days
Procedure: Serial passaging procedure was done as reported in literature.5 Briefly, E. coli MG1655 cells were grown in 0.6 mL of MH media containing fabimycin and ciprofloxacin (control) at different concentrations. Cells were added to the respective compounds at 0.25X, 0.5X, 1X, 2X, and 4X to start. At 22-24 hours the cultures were checked for growth. […]
compound at varying concentrations based off of the MIC. This serial passaging was repeated for 21 days. […]
All cells were cultured […]
at 37 °C under a 5% CO2 environment. Cell lines were authenticated by a commercial vendor and inspected visually in house. Cell lines were not tested for Mycoplasma contamination. The media was prepared by the University of Illinois School of Chemical Sciences Cell Media Facility.
H. sapiens HFF-1, A549, and HepG2 cells were seeded (3,000-6,000 cells/well) in a 96-well plate (Greiner Bio-One;

| Compound | MIC (E. coli MG1655 [1]) [µg/mL] | MIC (S. aureus ATCC 29213) [µg/mL] | MIC (E. coli ΔtolC (JW5503)) [µg/mL] | MIC (A. baumannii AR-0033) [µg/mL] | MIC (A. baumannii AR-0273) [µg/mL] | MIC (A. baumannii AR-0299) [µg/mL] | MIC (E. coli AR-0048) [µg/mL] | MIC (E. coli AR-0085) [µg/mL] | MIC (K. pneumoniae AR-0066) [µg/mL] | MIC (K. pneumoniae AR-0560) [µg/mL] | MIC (K. pneumoniae BAA-2472) [µg/mL] | MIC (A. baumannii AR-0313) [µg/mL] | MIC (K. pneumoniae AR-0113) [µg/mL] | increase in the MIC after serial passaging (E. coli MG1655 [2]) [fold] |
| --- | --- | --- | --- | --- | --- | --- | --- | --- | --- | --- | --- | --- | --- | --- |
| Cc1c(CN(C)C(=O)/C=C/c2cnc3c(c2)CC2(CCC(CN)CC2)C(=O)N3)oc2ccccc12 (racemic) [(±)-6] | 16 (≈ 33.9 µM) | 0.031 (≈ 0.0656 µM) | 0.062 (≈ 0.131 µM) | – | – | – | – | – | – | – | – | – | – | – |
| Cc1c(CN(C)C(=O)/C=C/c2cnc3c(c2)CC2(CNC2)C(=O)N3)oc2ccccc12 [compound 2] | 4 (≈ 9.6 µM) | 0.016 (≈ 0.0384 µM) | 0.031 (≈ 0.0744 µM) | 8 (≈ 19.2 µM) | 8 (≈ 19.2 µM) | 16 (≈ 38.4 µM) | 8 (≈ 19.2 µM) | 4 (≈ 9.6 µM) | 8 (≈ 19.2 µM) | 16 (≈ 38.4 µM) | 8 (≈ 19.2 µM) | 16 (≈ 38.4 µM) | 16 (≈ 38.4 µM) | – |
| Cc1c(CN(C)C(=O)/C=C/c2cnc3c(c2)CCC(CCN)C(=O)N3)oc2ccccc12 (racemic) [(±)-9] | 32 (≈ 74 µM) | 0.062 (≈ 0.143 µM) | 0.125 (≈ 0.289 µM) | – | – | – | – | – | – | – | – | – | – | – |
| Cc1c(CN(C)C(=O)/C=C/c2cnc3c(c2)CC2(CCC(N)CC2)C(=O)N3)oc2ccccc12 (racemic) [(±)-5] | 16 (≈ 34.9 µM) | 0.016 (≈ 0.0349 µM) | 0.062 (≈ 0.135 µM) | – | – | – | – | – | – | – | – | – | – | – |
| O=C(O)c1cn(C2CC2)c2cc(N3CCNCC3)c(F)cc2c1=O [ciprofloxacin, reference compound] | – | – | – | – | – | – | – | – | – | – | – | – | – | 128 |
| Cc1c(CN(C)C(=O)/C=C/c2cnc3c(c2)CCC(CN)C(=O)N3)oc2ccccc12 (racemic) [(±)-8] | 8 (≈ 19.1 µM) | 0.031 (≈ 0.0741 µM) | 0.125 (≈ 0.299 µM) | 16 (≈ 38.2 µM) | 32 (≈ 76.5 µM) | 32 (≈ 76.5 µM) | 16 (≈ 38.2 µM) | 8 (≈ 19.1 µM) | 32 (≈ 76.5 µM) | 16 (≈ 38.2 µM) | 32 (≈ 76.5 µM) | > 32 | 32 (≈ 76.5 µM) | – |

Reference: article PMC9413440, “An Iterative Approach Guides Discovery of the FabI Inhibitor Fabimycin, a Late-Stage Antibiotic Candidate with In Vivo Efficacy against Drug-Resistant Gram-Negative Infections” (ACS Central Science, 2022)
